Test results: DBAASP
In brackets after ≈: the same amount, converted by molar mass. Each block holds one compound with its values, some of them ahead of it.

What was measured:
Assay in all cases: ≥ marks a high value that may be exact or a test limit, other limits are often not marked, values filed in µg/mL are converted to µM
[1] = test system: Candida albicans ATCC 90029
Candida albicans CA1 = test system: Candida albicans CA1
[2] = test system: Candida krusei ATCC 40147
[3] = test system: Candida parapsilosis ATCC 90018
[4] = test system: Candida tropicalis ATCC 750
[5] = test system: Enterococcus faecalis ATCC 51299
[6] = test system: Enterococcus faecium ATCC 19434
[7] = test system: Escherichia coli ATCC 35218
[8] = test system: Klebsiella pneumoniae ATCC 49472
[9] = test system: Klebsiella pneumoniae ATCC BAA-2814
[10] = test system: Pseudomonas aeruginosa ATCC 27853
[11] = test system: Salmonella enterica subsp. enterica serovar Typhimurium ATCC 14028
[12] = test system: Staphylococcus aureus ATCC 12600
[13] = test system: Staphylococcus aureus ATCC BAA-2312
[14] = test system: Candida albicans ATCC 1023
Candida albicans = test system: Candida albicans
[15] = test system: Escherichia coli ATCC 25922
[16] = test system: Staphylococcus aureus ATCC 25923
Aspergillus niger = test system: Aspergillus niger
Cryptococcus neoformans = test system: Cryptococcus neoformans
Escherichia coli SBS 363 = test system: Escherichia coli SBS 363
Micrococcus luteus A270 = test system: Micrococcus luteus A270
Penicillium expansum = test system: Penicillium expansum
[17] = test system: Pseudomonas aeruginosa 253
[18] = test system: Pseudomonas aeruginosa 910
[19] = test system: Pseudomonas aeruginosa 919
[20] = test system: Pseudomonas aeruginosa PAO1
Escherichia coli 078 = test system: Escherichia coli 078
Escherichia coli 987P = test system: Escherichia coli 987P
Escherichia coli K88 = test system: Escherichia coli K88
Escherichia coli K99 = test system: Escherichia coli K99
Escherichia coli UB1005 = test system: Escherichia coli UB1005
[21] = test system: Lacticaseibacillus rhamnosus 1.0385
[22] = test system: Lacticaseibacillus rhamnosus 1.0386
[23] = test system: Lacticaseibacillus rhamnosus 1.0911
[24] = test system: Lacticaseibacillus rhamnosus 1.9205
[25] = test system: Lacticaseibacillus rhamnosus 7469
[26] = test system: Lactiplantibacillus plantarum 8014
[27] = test system: Salmonella enterica subsp. enterica serovar Typhimurium C77-31
[28] = test system: Staphylococcus aureus ATCC 29213
[29] = test system: Staphylococcus epidermidis ATCC 12228
[30] = test system: Streptococcus agalactiae ATCC 13813
[31] = test system: Klebsiella pneumoniae E406-17
[32] = test system: Pseudomonas aeruginosa E411-17
[33] = test system: Staphylococcus aureus M838-17

SMILES: CC[C@H](C)[C@H](NC(=O)[C@H](C)NC(=O)[C@H](CCCCN)NC(=O)[C@H](CC(C)C)NC(=O)[C@H](C)NC(=O)[C@H](Cc1c[nH]c2ccccc12)NC(=O)[C@H](CCCCN)NC(=O)[C@H](C)NC(=O)[C@H](CC(C)C)NC(=O)[C@@H](NC(=O)CNC(=O)[C@H](Cc1c[nH]c2ccccc12)NC(=O)[C@@H](N)Cc1ccccc1)[C@@H](C)O)C(=O)N1CCC[C@H]1C(=O)N[C@@H](C)C(=O)N[C@@H](C)C(=O)N[C@@H](CCSC)C(=O)NCC(=O)N[C@@H](CCSC)C(=O)N[C@@H](CCCCN)C(=O)N[C@@H](CCC(N)=O)C(=O)N[C@@H](CC(N)=O)C(=O)N[C@@H](CCCCN)C(=O)O [FWGTLAKWALKAIPAAMGMKQNK]
MIC [1]: 10 µM (≈ 25.6 µg/mL)
MIC (Candida albicans CA1): 10 µM (≈ 25.6 µg/mL)
MIC [2]: 5 µM (≈ 12.8 µg/mL)
MIC [3]: 10 µM (≈ 25.6 µg/mL)
MIC [4]: 10 µM (≈ 25.6 µg/mL)

SMILES: CC[C@H](C)[C@H](NC(=O)[C@H](CC(=O)O)NC(=O)[C@@H](NC(=O)[C@@H](NC(=O)[C@H](C)NC(=O)CN)C(C)C)C(C)C)C(=O)N[C@@H](CC(C)C)C(=O)N[C@@H](CCCCN)C(=O)NCC(=O)N[C@@H](C)C(=O)NCC(=O)N[C@@H](CCCCN)C(=O)N[C@@H](CC(N)=O)C(=O)N[C@@H](CC(C)C)C(=O)N[C@@H](CC(C)C)C(=O)N[C@@H](CO)C(=O)N[C@@H](CC(C)C)C(=O)N[C@@H](C)C(=O)N[C@@H](CC(C)C)C(=O)N[C@@H](CC(N)=O)C(=O)N[C@@H](CCCCN)C(=O)N[C@@H](CC(C)C)C(=O)N[C@@H](CO)C(=O)N[C@@H](CCC(=O)O)C(=O)N[C@@H](CCCCN)C(=O)N[C@H](C(N)=O)C(C)C [GAVVDILKGAGKNLLSLALNKLSEKV]
MIC [5]: ≥ 250 µM
MIC [6]: ≥ 250 µM
MIC [7]: ≥ 62.5 µM
MIC [8]: ≥ 125 µM
MIC [9]: ≥ 125 µM
MIC [10]: > 125 µM
MIC [11]: 250 µM (≈ 663 µg/mL)
MIC [12]: ≥ 250 µM
MIC [13]: ≥ 250 µM

SMILES: CC[C@H](C)[C@H](NC(=O)CN)C(=O)N[C@@H](CC(C)C)C(=O)N[C@@H](CC(=O)O)C(=O)N[C@@H](C)C(=O)N[C@H](C(=O)N[C@@H](CCCCN)C(=O)N[C@@H](C)C(=O)N[C@H](C(=O)N[C@@H](C)C(=O)N[C@@H](CCCCN)C(=O)N[C@@H](C)C(=O)N[C@@H](C)C(=O)NCC(N)=O)[C@@H](C)CC)[C@@H](C)CC [GILDAIKAIAKAAG]
MIC [14]: ≥ 195 µM
MIC (Candida albicans): 195 µM (≈ 256 µg/mL)
MIC [15]: 24.4 µM (≈ 32 µg/mL)
MIC [10]: 48.8 µM (≈ 64 µg/mL)
MIC [16]: 6.1 µM (≈ 7.99 µg/mL)

SMILES: CSCC[C@H](NC(=O)CNC(=O)[C@H](CC(C)C)NC(=O)[C@H](Cc1ccccc1)NC(=O)CNC(=O)[C@H](CO)NC(=O)[C@@H]1CCCN1C(=O)CN)C(=O)N[C@@H](CCCN=C(N)N)C(=O)O [GPSGFLGMR]
MIC (Aspergillus niger): ≥ 128 µM
MIC (Cryptococcus neoformans): ≥ 128 µM
MIC (Escherichia coli SBS 363): ≥ 100 µM
MIC (Micrococcus luteus A270): ≥ 128 µM
MIC (Penicillium expansum): ≥ 128 µM
MIC [10]: 64 µM (≈ 58.9 µg/mL)

Second part, led by results:

MIC [17]: 8 µM (≈ 15.7 µg/mL)
MIC [18]: 4 µM (≈ 7.84 µg/mL)
MIC [19]: ≥ 32 µM
MIC [20]: 2 µM (≈ 3.92 µg/mL)
SMILES: CC[C@H](C)[C@H](N)C(=O)N[C@@H](CC(C)C)C(=O)N[C@@H](CCCCN)C(=O)N[C@@H](Cc1c[nH]c2ccccc12)C(=O)N[C@@H](CCCCN)C(=O)N[C@@H](CCCN=C(N)N)C(=O)N[C@@H](CCCCN)C(=O)N[C@@H](Cc1c[nH]c2ccccc12)C(=O)N[C@@H](Cc1c[nH]c2ccccc12)C(=O)N[C@@H](CCCCN)C(=O)N[C@@H](Cc1c[nH]c2ccccc12)C(=O)N[C@@H](Cc1ccccc1)C(=O)N[C@@H](CCCN=C(N)N)C(N)=O [ILKWKRKWWKWFR]

MIC (Escherichia coli 078): ≥ 128 µM
MIC (Escherichia coli 987P): ≥ 128 µM
MIC [15]: 64 µM (≈ 77.5 µg/mL)
MIC (Escherichia coli K88): ≥ 64 µM
MIC (Escherichia coli K99): ≥ 64 µM
MIC (Escherichia coli UB1005): ≥ 128 µM
MIC [21]: ≥ 128 µM
MIC [22]: ≥ 128 µM
MIC [23]: ≥ 128 µM
MIC [24]: ≥ 128 µM
MIC [25]: ≥ 128 µM
MIC [10]: > 128 µM
MIC [27]: ≥ 128 µM
MIC [16]: > 128 µM
MIC [28]: > 128 µM
MIC [29]: > 128 µM
MIC [30]: ≥ 128 µM
SMILES: CC(C)C[C@H](NC(=O)[C@H](CCCN=C(N)N)NC(=O)[C@@H](NC(=O)[C@H](CCCN=C(N)N)NC(=O)[C@@H]1CCCN1C(=O)[C@H](CCCN=C(N)N)NC(=O)[C@H](CCCCN)NC(=O)[C@@H](N)CCC(N)=O)C(C)C)C(=O)N[C@@H](CO)C(=O)N[C@@H](C)C(=O)O [QKRPRVRLSA]
MIC [26]: ≥ 128 µM

MIC [31]: 6.25 µM (≈ 8.4 µg/mL)
MIC [32]: 6.25 µM (≈ 8.4 µg/mL)
MIC [33]: 3.1 µM (≈ 4.17 µg/mL)
SMILES: CC(C)C[C@H](NC(=O)[C@H](Cc1c[nH]c2ccccc12)NC(=O)[C@H](Cc1c[nH]c2ccccc12)NC(=O)[C@H](Cc1c[nH]c2ccccc12)NC(=O)[C@H](Cc1c[nH]c2ccccc12)NC(=O)[C@H](CCCN=C(N)N)NC(=O)[C@H](CCCN=C(N)N)NC(=O)[C@@H](N)CCCN=C(N)N)C(N)=O [RRRWWWWL]
